# Measured values reported in patent US20250235501A1, “Methods and Compositions for Treating or Preventing Neurological Injury or Neurological Disorders” (University of Connecticut, priority 2024, published 2025).
# Tested on: ERK and CREB activities (pERK1/2, pCREB)
# Assay: ERK and CREB activities in brains of mice subjected to MCAO (WB)
# Format: in vivo, mouse
# Conditions: WT mice; peptide ip 15 min before MCAO or sham
# Procedure: FIGS. 7I-7K show the effects of TAT-EE3 and Trpm2 deletion on ERK and CREB activities in mice subjected to MCAO. […] TAT-EE3 or TAT-SC was ip administrated to WT mice 15 min before MCAO or sham surgeries. FIGS. 7J and 7K show the quantification of pERK1/2 and pCREB expressed in the brains after MCAO or sham procedure (***, p<0.001; ANOVA, Bonferroni's test; mean±SEM, n=4/group).
# Eight-to nine-week-old male mice (˜25 g) were subjected to right middle cerebral artery occlusion (MCAO) for 120 min followed by 24 hours of reperfusion. The genotype information was blinded to the surgeon who conduct the surgeries. […] Mouse body temperature was monitored by a rectal temperature probe and maintained at ˜ 37° C. with an automatic temperature-regulating heating pad connected to animal temperature controller (TCA T-2DF, Physitemp). Cerebral blood flow was monitored after occlusion as well as after reperfusion. […] Successful occlusion was confirmed by 85% reduction of cerebral blood flow monitored by Laser Doppler Flowmetry (LDF) with laser Doppler blood FlowMeter (Moor-VMS-LDF1, Moor Instrument, Dever, UK). […]
# NP-40/Triton lysis buffer ([…], 1% Triton™ X-100, 150 mM NaCl, 1 mM EDTA, 50 mM Tris, pH=8.0) containing proteinase inhibitors and phosphatase inhibitors was used to lyse both cultured cells and frozen brain tissue. […] Protein concentration was measured using Pierce™ Rapid Gold BCA Protein Assay Kit. […]
substance,measurement,value
"TAT-EE3: membrane permeable disrupting peptide, sequence YGRKKRRQRRREEDTDSSEEMLALAEE (SEQ ID NO: 4)",pCREB level in MCAO brains vs sham control brains,no reduction
same,pERK1/2 level in MCAO brains vs sham control brains,no reduction
